# Test results from patent publication US20100119512A1, “METHODS OF DIAGNOSING, TREATING, AND PREVENTING INCREASED VASCULAR PERMEABILITY” (Joslin Diabetes Center, priority 2007, published 2010).
# B1: C1-INH: C1 inhibitor; binds covalently to the active site of FXII (protein, UniProt P05155 23-500, looked up)
# Plasma protease C1 inhibitor: NPNATSSSSQDPESLQDRGEGKVATTVISKMLFVEPILEVSSLPTTNSTTNSATKITANTTDEPTTQPTTEPTTQPTIQPTQPTTQLPTDSPTQPTTGSFCPGPVTLCSDLESHSTEAVLGDALVDFSLKLYHAFSAMKKVETNMAFSPFSIASLLTQVLLGAGENTKTNLESILSYPKDFTCVHQALKGFTTKGVTSVSQIFHSPDLAIRDTFVNASRTLYSSSPRVLSNNSDANLELINTWVAKNTNNKISRLLDSLPSDTRLVLLNAIYLSAKWKTTFDPKKTRMEPFHFKNSVIKVPMMNSKKYPVAHFIDQTLKAKVGQLQLSHNLSLVILVPQNLKHRLEDMEQALSPSVFKAIMEKLEMSKFQPTLLTLPRIKVTTSQDMLSIMEKLEFFDFSYDLNLCGLTEDPDLQVSAMQHQTVLELTETGVEAAAASAISVARTLLVFEVQQPFLFVLWDQQHKFPVFMGRVYDPRA
# Columns and labels:
# [1] = tested on: prekallikrein (PK) activation by FXII; test: PK activation by FXII in the presence of HK, fluorogenic kallikrein substrate; assay type: biochemical, human; conditions: for effect on kallikrein activation in vitro: PK activation by FXII in the presence of HK
# Description: FIG. 2 is a line graph illustrating the effect of varying concentrations of C1-INH on PK activation by FXII in the presence of HK. Kallikrein activity was measured as cleavage of synthetic fluorogenic kallikrein substrate (0.4 mM) on a microplate reader at 37° C. at 15 minutes (means±s.e.m.; n=4).
# FIG. 3 is line graph illustrating the effect of varying concentrations of anti-PK antibody on PK activation by FXII in the presence of HK (means±s.e.m. n=5-6).
# The effects of C1-INH and anti-PK antibody on the kinetics of PK activation by factor XII (FXII) were monitored in vitro using a fluorescent kallikrein substrate. Fluorogenic kallikrein substrate (H-D-Val-Leu-Arg-AFC; Calbiochem) was used to quantify kallikrein enzymatic activity.
# [2] = tested on: retinal vascular permeability; conditions: rats, cited from earlier work
molecule,measurement,setting,value
"CA-I: human erythrocyte CA-I (Sigma), carbonic anhydrase 1",effect on kallikrein activation in vitro,[1],Neither CA-I or bicarbonate ion affected
same,effect of intravitreal injection on retinal vascular permeability,[2]; intravitreal,increased
"CC(=O)Nc1nnc(S(N)(=O)=O)s1 [acetazolamide, reference compound]",effect on increased retinal permeability induced by transplant of vitreous from patients with advanced diabetic retinopathy,[2],blocked
O=C(O)O [bicarbonate ion],effect on kallikrein activation in vitro,[1],Neither CA-I or bicarbonate ion affected
B1,effect on PK activation (kallikrein activity),"[1]; varying concentrations, FXII and HK present, fluorogenic kallikrein substrate 0.4 mM, 37° C., 15 minutes",inhibited
same,effect on CA-1-induced retinal vascular permeability,[2]; intravitreal CA-1,blocked
